# From PMC10683027, “Discovery of tert-Butyl Ester Based 6-Diazo-5-oxo-L-norleucine Prodrugs for Enhanced Metabolic Stability and Tumor Delivery” (Journal of Medicinal Chemistry, 2023)
# Where “and” joins values, the source holds several entries; their conditions need not be identical. Equal entries are not always repeated.
# Tests used:
# [1] = Aqueous solubility assay in PBS buffer (pH 7.4); type: physicochemical
# Experimental: The aqueous solubility was determined as previously reported with minor modifications.[48] Briefly, an excess amount of P11 or DRP-104 was added to PBS buffer (pH 7.4) and sonicated for 1 h at 37 °C to ensure saturation. After 1 h, the solution was filtered (0.45 μm PTFE), and the filtrate was diluted appropriately, and the concentration of each analyte was determined via LC–MS. Chemical stabilities of DRP-104 and P11 were done as previously described[18] with modifications. For chemical stability, prodrugs were spiked (10 μM) in buffer at pH 7.4 and incubated at 37 °C for 24 h. Prodrug disappearance was monitored using the developed HRMS methods.
# [2] = test system: P493B lymphoma cells; assay: Cell viability assay; type: cell-based; settings: Homo sapiens, 72 h, 72 h incubation
# Experimental: Cell proliferation assays were performed as we have previously described.[19] Briefly, P493B lymphoma cells were plated in 96-well plates at a density of 20 000 cells/well in a final volume of 100 μL of growth media. P11, or DRP-104, was added to cells in half-log serial dilutions with a final concentration of 0.2% DMSO. Cells were allowed to proliferate for 72 h, and thereafter, 20 μL of CellTiter 96 AQueous (Promega no. 3580) was added per well and incubated for 2 h. Absorbance was measured at 490 nm. Relative cell viability was calculated from the difference between untreated cell wells (100%) and media well without cells (0%).
# [3] = test system: glutamine and FGAR in EL4 tumors; assay: Tumor target engagement: glutamine and FGAR quantification; type: in vivo, C57BL/6/CES1–/– mice; settings: P11 2.9 mg/kg SC
# Experimental: Glutamine and FGAR were extracted from the tumor by protein precipitation. Per milligram of tissue, 5 μL of methanol containing 10 μmol/L deuterated N-acetyl aspartic acid and deuterated glutamate (internal standards) was added. Tissue samples were homogenized as described above and centrifuged (16000g, 5 min). Standard concentration curves of glutamine and FGAR in untreated plasma and tumor tissues were prepared (separately). For FGAR quantification, supernatants (2 μL) were injected and separated on an UltiMate 3000 UHPLC coupled to a Q Exactive Focus Orbitrap mass spectrometer. Samples were separated on an Agilent Eclipse Plus C18 RRHD (1.8 μm) 2.1 × 100 mm column. The mobile phase consisted of 8 mmol/L dimethylhexylamine (DMHA) + 0.005% formic acid in water, pH 9 (A), and 8 mmol/L DMHA in acetonitrile (B). […] Quantification was performed in full MS negative mode. Data were acquired and quantified with Xcalibur software.
# Glutamine analysis took place on an Agilent 1290 UPLC coupled to an Agilent 6520 quadrupole time-of-flight mass spectrometer. Samples (2 μL) were injected and separated on a Waters Acquity UPLC BEH Amide 1.7 μm 2.1 × 100 mm HILIC column with a flow rate of 0.3 mL/min. The mobile phases consisted of A (water +0.1% formic acid) and B (acetonitrile + 0.1% formic acid). The mass spectrometer was run in positive ion mode. Standard curves for FGAR and glutamine were fitted using a blank subtraction method[47] to compensate for the presence of endogenous analyte levels in naïve matrixes.
smiles,measurement,setting,value
"CN(C)CC(=O)N[C@@H](Cc1ccccc1)C(=O)N[C@@H](CCC(=O)C=[N+]=[N-])C(=O)OC(C)(C)C [Prodrug P11, tert-Butyl (S)-6-Diazo-2-((S)-2-(2-(dimethylamino)acetamido)-3-phenylpropanamido)-5-oxohexanoate]",solubility at 1 h,"[1]; PBS buffer pH 7.4, 37 °C, 1 h",8100 ± 1100 µg/mL
same,fold solubility improvement compared to DRP-104,[1]; buffer pH 7.4,33 and > 30
same,EC50,[2],~300 nM
same,fold increase in tumor FGAR compared with vehicle,[3]; 30 min,150
same,fold rise in tumor glutamine compared with vehicle,[3]; 30 min,~2
same,tumor FGAR level,[3]; 30 min post dose (Tmax),1040 ± 179 nmol/g
same,tumor glutamine level,[3]; 30 min post dose (Tmax),1710 ± 173 nmol/g
